Experiments:
Type in all cases: cell-based
HSP70 [1] = experiment: MaCRA HCS HSP70 granule assay, heat shock 41° C.; settings: Homo sapiens, HeLa, read-out: EC50 of HSP granule area
Experimental: (§1) This experiment was directed to developing of a HSF1/HSP70 high-content screening (HCS) assay for screening HSF1 activators. HeLa cells were pretreated with a compound (celastrol) one hour before heat shock at 41° C. for two hours. The dilution in Dulbecco's Modified Eagle's Medium (DMEM) was 200-fold resulting in a final concentration of 30 μM for screening. A custom made aluminum plate was designed for better heat transduction and to achieve a constant temperature with minimal variability for the 96-well plate. The aluminum plate was placed inside a 41° C. incubator for one day prior to the experiment.
Immunocytochemical staining for HSF1 and HSP70 in HeLa cells was performed as in Zhang et al., Biomol Screen., 13(6):538-543, 2008. Image acquisition was performed using an INcell 1000 (GE Healthcare, Piscataway, N.J.) integrated with a Twister II (Caliper Life Sciences, Hopkinton, Mass.) for automated plate delivery. […]
A Multi Target Analysis Module (MTA) module from Workstation software (GE Healthcare) provides a high-speed measurement of nuclear granules including granule count, granule area, granule intensity and nuclear intensity CV (CV of pixel intensity in the nucleus). FIGS. 2A and 2B provide a quantification of HSF1 variables via granule count and nuclear intensity CV. FIGS. 2C and 2D adopted granule count and granule area for the quantification of HSP70 granules. […]

HSF1 [2] = experiment: MaCRA HCS HSF1 granule assay, heat shock 41° C.
Experimental: as §1
Immunocytochemical staining for HSF1 and HSP70 in HeLa cells was performed as in Zhang et al., Biomol Screen., 13(6):538-543, 2008. Image acquisition was performed using an INcell 1000 (GE Healthcare, Piscataway, N.J.) integrated with a Twister II (Caliper Life Sciences, Hopkinton, Mass.) for automated plate delivery. Image analysis was carried out using a Multi Target Analysis module from Workstation 3.6. Algorithms for HSF1/HSP70 granule count, granule area and nuclear intensity CV were established according to assay conditions and manufacture instructions. EC50 values and curve fitting were performed using a Prism 4.0 (GraphPad Software, San Diego, Calif.) with nonlinear regression analysis.
A Multi Target Analysis Module (MTA) module from Workstation software (GE Healthcare) provides a high-speed measurement of nuclear granules including granule count, granule area, granule intensity and nuclear intensity CV (CV of pixel intensity in the nucleus). FIGS. 2A and 2B provide a quantification of HSF1 variables via granule count and nuclear intensity CV. FIGS. 2C and 2D adopted granule count and granule area for the quantification of HSP70 granules.
By comparison, DMSO-treated cells contain, on average, 2.46±0.22 granules. To achieve a relatively low background, HeLa cells that contained more than 5 HSF1 granules were designated as “HSF1 granule positive cells”. The thresholds for HSF1 nuclear intensity CV, HSP70 granule count and HSP70 granule area were also chosen with gating values equivalent to the average of DMSO treated samples plus 2 or more standard deviations (FIG. 2B-2D).
Experiment 3: HeLa cells were seeded in Costar 96-well assay plates (Costar 3904) at a density of 8,000 cells/well approximately 16 to 24 hours before compound treatment. Subsequently, the cells were treated with DMSO. […] Heat shock was carried out at 41° C. for 2 hours with no recovery time. Immediately following heat shock, 50 μL of 16% para-formaldehyde was mixed with the culture medium (total volume at 150 μL) to a final concentration of 4%. The plates were incubated at room temperature for 30 minutes before washing with PBS. […]

SH-SY5Y cells = experiment: Rotenone model, MTS readout; settings: 100 nM for 24 hours
From the text: This experiment tests the hits from the MaCRA HSF1 activator screening in a secondary rotenone assay for cytoprotective effects of test compounds on SHSY5Y cells. The rotenone model of Parkinson's disease is an in vitro system for study of protein aggregation induced cytotoxicity. […] See Greenamyre et al., Parkinsonism Relat. Disord., Suppl 2:S59-S64 (2003). Therefore, this in vitro system may be adopted to evaluate cytoprotective effects of the HSF1/HSP70 MaCRA screening hits as carried out essentially as described in Sherer et al., J. Neuroscience, 23(34):10756-10764, 2003. […] In summary, the small molecule HSF1/HSP70 amplifier identified from our HSF1/HSP70 screening can rescue cells from two different stress conditions with cytoprotective benefits, possibly through the mechanism of HSF1/HSP70 amplification.

HSF1 [3] = experiment: HSF1 granule inhibitor assay, heat shock 43° C.; settings: HeLa, 10 nM-10 μM, 43° C. 1-4 hours, threshold 5 granules/nucleus
Experimental: Experiment 1: HeLa cells were treated with four different […] (10 nM, 100 nM, 1 μM and 10 μM) of triptolide and subsequently underwent heat shock at 43° C. for 1 to 4 hours. […] HSF1 granule count was measured with 5 granules/nucleus used as the threshold. Similar assay conditions were used to test the effect of various compounds selected using MaCRA methods as described herein.
Experiment 1: HSF1 granule formation induced by Triptolide (▪), CYT1563 (▴) and DMSO (♦, control) was evaluated in a 96-well plate format (See Example 4) following heat shock at 43° C. for 2 hours with no recovery time. FIG. 26A illustrates the HSF1 inhibition.
Experiment 2: HSF1 granule formation induced by Triptolide (▪), CYT1563 (▴) and DMSO (♦, control) was evaluated in a 96-well plate format (See Example 4) following heat shock at 43° C. for 4 hours with 4 hours recovery time. FIG. 26B illustrates the HSF1 inhibition.
HeLa cells were treated with DMSO (♦) or CYT 1563 (10 μM) (▪) and subsequently heat shocked at 43° C. for 2 h with no recovery time using HSF1 granule count in a 384-well plate format (See Example 10). Results including the Z′ values and Signal/Background (S/B) ratio are illustrated in FIG. 27.

HSP70 [4] = experiment: HSP70 inhibitor assay, heat shock 43° C.; settings: HeLa, 1 μM triptolide or 10 μM CYT compound, 43° C. 1-4 hours, recovery 0-7 hours
Experimental: (§2) Experiment 2: HeLa cells were treated with 1 μM of Triptolide and 10 μM of CYT975 (▪), CYT1563 (▴) and CYT1590 ([…]) 30 minutes before heat shock. The cells subsequently underwent heat shock at 43° C. for 1 hour with 0, 5 or 7 hours recovery time with total HSP70 nuclear and cell intensity as the threshold.
as §2, with “Experiment 3:” for “Experiment 2:”, “for 2 hours” for “for 1 hour”, “0, 4” for “0, 5”, “or 6” for “or 7”
as §2, with “4:” for “2:”, “3 hours” for “1 hour”, “0, 3 or” for “0,”, “5” for “5 or 7”, “threshold. […]” for “threshold.”
Experiment 3: HSP70 expression induced by Triptolide (▪), CYT1563 (▴) and DMSO (0, control) was evaluated in a 96-well plate format (See Example 4) following heat shock at 43° C. for 2 hours with 4 hours recovery time. […]
Experiment 4: HSP70 expression induced by Triptolide (▪), CYT1563 (▴) and DMSO (♦, control) was evaluated in a 96-well plate format (See Example 4) following heat shock at 43° C. for 4 hours with 4 hours recovery time. […]

`CC1=C(O)C(=O)C=C2C1=CC=C1[C@@]2(C)CC[C@@]2(C)[C@@H]3C[C@](C)(C(=O)O)CC[C@]3(C)CC[C@]12C` [celastrol] was tested, and the EC50 (HSP70 [1]) was 650 nM, the “HSF1 granule positive cells” value (HSF1 [2]; 96-well, 2 μM, 41° C. 2 h, HSF1 granule count) was 59.36% and the “average HSF1 stress granules per nucleus” value (HSF1 [2]; HeLa, 2 μM, 41° C. for two hours) was 5.34±0.72 granules per nucleus. The “HSF1 stress granules per nucleus, positive control at 43° C.” value (HSF1 [2]; HeLa, heat shock 43° C.) was “about 6.56” and the EC50 (HSF1 [2]; Homo sapiens, HeLa, read-out: EC50 of HSF1 intensity CV) was 1320 nM.

`C=C(C)[C@H]1Cc2c(ccc3c2O[C@@H]2COc4cc(OC)c(OC)cc4[C@@H]2C3=O)O1` [rotenone] was tested, and the SH-SY5Y cells killed (SH-SY5Y cells) was “more than 42%”.

With `CC(C)[C@]12O[C@H]1[C@@H]1O[C@]13[C@]1(O[C@H]1C[C@H]1C4=C(CC[C@@]13C)C(=O)OC4)[C@@H]2O` [triptolide] the “inhibition of HSF1 granule formation” value (HSF1 [3]) was “dose dependent inhibition of HSF1 granule formation” and the “HSP70 expression after heat shock” value (HSP70 [4]) was “reduction of HSP70 expression”.

— patent publication US20110166038A1, “SCREENING METHODS FOR HEAT-SHOCK RESPONSE MODULATORS” (SCREENING METHODS FOR HEAT-SHOCK RESPONSE MODULATIORS, priority 2008, published 2011)
